The first test deals with Alternaria solani. As to the kind of experiment: Alternaria solani (early blight of tomato/potato) in vitro radial growth test on Potato Dextrose Agar. Format: cell-based. To be noted: 168 h, radial growth after seven days at 25° C., 60% relative humidity, read-out: control compared to the untreated check.
On to `O=C(Cc1ccccc1)Nc1ccc(Cc2noc(C(F)(F)F)n2)cc1` [Compound 6, 2-phenyl-N-(4-((5-(trifluoromethyl)-1,2,4-oxadiazol-3-yl)methyl)phenyl)acetamide], for which the inhibition of growth at 300 ppm is greater than 70%. The same measure, in the same setting: the figure for `O=C(Nc1cncc(Cl)c1)c1ccc(Cc2noc(C(F)(F)F)n2)cc1` [Compound 17, N-(5-chloropyridin-3-yl)-4-((5-(trifluoromethyl)-1,2,4-oxadiazol-3-yl)methyl)benzamide] is greater than 70%; for `O=C(Nc1cccc(Cl)c1)c1ccc(Cc2noc(C(F)(F)F)n2)cc1` [Compound 55, N-(3-chlorophenyl)-4-((5-(trifluoromethyl)-1,2,4-oxadiazol-3-yl)methyl)benzamide] it is greater than 70%.

Regarding `COc1ccccc1NC(=O)c1ccc(Cc2noc(C(F)(F)F)n2)cc1` [Compound 19, N-(2-methoxyphenyl)-4-((5-(trifluoromethyl)-1,2,4-oxadiazol-3-yl)methyl)benzamide], the inhibition of growth at 300 ppm is greater than 70%. Turning to `O=C(NCc1ccc(F)cc1)c1ccc(Cc2noc(C(F)(F)F)n2)cc1` [Compound 12, N-(4-fluorobenzyl)-4-((5-(trifluoromethyl)-1,2,4-oxadiazol-3-yl)methyl)benzamide], the inhibition of growth at 300 ppm was greater than 70%. `Cc1cccc(NC(=S)c2ccc(Cc3noc(C(F)(F)F)n3)cc2)c1` [Compound 64, N-(m-tolyl)-4-((5-(trifluoromethyl)-1,2,4-oxadiazol-3-yl)methyl)benzothioamide]: the inhibition of growth at 300 ppm was greater than 70%. On the same count and under the same terms, next, `Cc1ccc(C(C)NC(=O)c2ccc(Cc3noc(C(F)(F)F)n3)cc2)cc1` (stereo not drawn) [Compound 15, N-(1-(p-tolyl)ethyl)-4-((5-(trifluoromethyl)-1,2,4-oxadiazol-3-yl)methyl)benzamide]: greater than 70%. Turning to `O=C(NCCN1CCOCC1)c1ccc(Cc2noc(C(F)(F)F)n2)cc1` [Compound 21, N-(2-morpholinoethyl)-4-((5-(trifluoromethyl)-1,2,4-oxadiazol-3-yl)methyl)benzamide], the inhibition of growth at 300 ppm was greater than 70%. On to `O=C(NCc1cccnc1)c1ccc(Cc2noc(C(F)(F)F)n2)cc1` [Compound 16, N-(pyridin-3-ylmethyl)-4-((5-(trifluoromethyl)-1,2,4-oxadiazol-3-yl)methyl)benzamide], for which the inhibition of growth at 300 ppm is greater than 70%.

A further test concerns Colletotrichum capsici. As to the kind of experiment: Colletotrichum capsici (anthracnose) in vitro radial growth test on Potato Dextrose Agar. Format: cell-based. To be noted: 300 ppm; radial growth after seven days at 25° C., 60% relative humidity.
As for `O=C(Cc1ccccc1)Nc1ccc(Cc2noc(C(F)(F)F)n2)cc1` [Compound 6, 2-phenyl-N-(4-((5-(trifluoromethyl)-1,2,4-oxadiazol-3-yl)methyl)phenyl)acetamide], the “control compared to the untreated check” value was greater than 70%.

In another test the test system is Corynespora cassicola. The test can be described thus: Corynespora cassicola (leaf spot of tomato) in vitro radial growth test on Potato Dextrose Agar. In kind it is cell-based. Conditions: 300 ppm; radial growth after seven days at 25° C., 70% relative humidity.
For `O=S(=O)(Nc1ccc(Cc2noc(C(F)(F)F)n2)cc1)c1ccccc1` [Compound 68, N-(4-((5-(trifluoromethyl)-1,2,4-oxadiazol-3-yl)methyl)phenyl)benzenesulfonamide], the “control compared to the untreated check” value is given as greater than 70%.

For the next test, the system named is Phakopsora pachyrhizi. The test can be described thus: Phakopsora pachyrhizi test in soybean (greenhouse, preventive). Format: in vivo. To be noted: 24 h, soybean plants sprayed one day before inoculation, read-out: control compared to the untreated check (efficacy from disease severity rating). The procedure: Compounds were dissolved in 2% DMSO/Acetone and then diluted with water containing emulsifier to the desired test concentration. To test the preventive activity of compounds, healthy young soybean plants, raised in the greenhouse, were sprayed with the active compound solution at the stated application rates inside spray cabinets using hallowcone nozzles. One day after treatment, the plants were inoculated with a suspension containing 2.1×10^6 Phakopsora pachyrhizi spores. The inoculated plants were then kept in the greenhouse chamber at 25° C. temperature and 90% relative humidity for disease expression. A visual assessment of the compound's performance was carried out by rating the disease severity (0-100% scale) on treated plants on 3, 7, 10 and 15 days after application. Efficacy (% control) of the compounds was calculated by comparing the disease rating in the treatment with the one of the untreated control. The treated plants were also assessed for plant compatibility by recording symptoms like necrosis, chlorosis and stunting.
Consider `O=C(c1ccc(Cc2noc(C(F)(F)F)n2)cc1)N1CCOCC1` [Compound 13, morpholino(4-((5-(trifluoromethyl)-1,2,4-oxadiazol-3-yl)methyl)phenyl)methanone], for which the pest or weed control at 500 ppm is greater than 70%.

Regarding `O=S(=O)(Nc1ccc(Cc2noc(C(F)(F)F)n2)cc1)c1ccccc1` [Compound 68, N-(4-((5-(trifluoromethyl)-1,2,4-oxadiazol-3-yl)methyl)phenyl)benzenesulfonamide], the pest or weed control at 500 ppm was greater than 70%. In the case of `CC(C)(C)OC(=O)Nc1ccc(C(F)(F)c2noc(C(F)(F)F)n2)cc1` [Compound 30, tert-butyl (4-(difluoro(5-(trifluoromethyl)-1,2,4-oxadiazol-3-yl)methyl)phenyl)carbamate], the pest or weed control at 500 ppm is greater than 70%. On the same count and under the same terms, next, `O=C(Cc1ccccc1)Nc1ccc(Cc2noc(C(F)(F)F)n2)cc1` [Compound 6, 2-phenyl-N-(4-((5-(trifluoromethyl)-1,2,4-oxadiazol-3-yl)methyl)phenyl)acetamide]: greater than 70%; `O=C(Nc1ccc(Cc2noc(C(F)(F)F)n2)cc1)c1ccncc1` [Compound 5, N-(4-((5-(trifluoromethyl)-1,2,4-oxadiazol-3-yl)methyl)phenyl)isonicotinamide]: greater than 70%; `O=C(Nc1ccc(Cc2noc(C(F)(F)F)n2)cc1)c1ccccc1` [Compound 2, N-(4-((5-(trifluoromethyl)-1,2,4-oxadiazol-3-yl)methyl)phenyl)benzamide]: greater than 70%. In the case of `O=C(Nc1ccc(C(=O)c2noc(C(F)(F)F)n2)cc1)c1ccncc1` [Compound 27, N-(4-(5-(trifluoromethyl)-1,2,4-oxadiazole-3-carbonyl)phenyl)isonicotinamide], the pest or weed control at 500 ppm is greater than 70%.

Consider `O=C(Nc1ccc(Cc2noc(C(F)(F)F)n2)cc1)c1cccnc1` [Compound 4, N-(4-((5-(trifluoromethyl)-1,2,4-oxadiazol-3-yl)methyl)phenyl)nicotinamide], for which the pest or weed control at 500 ppm was greater than 70%. For `Cc1ccc(C(=O)Nc2ccc(C(F)(F)c3noc(C(F)(F)F)n3)cc2)cc1` [Compound 38, N-(4-(difluoro(5-(trifluoromethyl)-1,2,4-oxadiazol-3-yl)methyl)phenyl)-4-methylbenzamide], the pest or weed control at 500 ppm was greater than 70%. As for `O=C(Nc1ccc(Cc2noc(C(F)(F)F)n2)cc1)c1ccc(Cl)cc1` [Compound 10, 4-chloro-N-(4-((5-(trifluoromethyl)-1,2,4-oxadiazol-3-yl)methyl)phenyl)benzamide], the pest or weed control at 500 ppm is greater than 70%.

Consider `COc1ccc(Cl)c(NC(=O)c2ccc(Cc3noc(C(F)(F)F)n3)cc2)c1` [Compound 18, N-(2-chloro-5-methoxyphenyl)-4-((5-(trifluoromethyl)-1,2,4-oxadiazol-3-yl)methyl)benzamide], for which the pest or weed control at 500 ppm is greater than 70%.

As to `O=C(c1ccc(Cc2noc(C(F)(F)F)n2)cc1)N1CCCC1` [Compound 45, pyrrolidin-1-yl(4-((5-(trifluoromethyl)-1,2,4-oxadiazol-3-yl)methyl)phenyl)methanone], the pest or weed control at 500 ppm is greater than 70%. In the case of `CCN(C)C(=O)c1ccc(Cc2noc(C(F)(F)F)n2)cc1` [Compound 48, N-ethyl-N-methyl-4-((5-(trifluoromethyl)-1,2,4-oxadiazol-3-yl)methyl)benzamide], the pest or weed control at 500 ppm is greater than 70%. For `O=C(Nc1ccc(Cc2noc(C(F)(F)F)n2)cc1)c1ccc(F)cc1` [Compound 9, 4-fluoro-N-(4-((5-(trifluoromethyl)-1,2,4-oxadiazol-3-yl)methyl)phenyl)benzamide], the pest or weed control at 500 ppm is greater than 70%. As for `O=C(NCC1CC1)c1ccc(Cc2noc(C(F)(F)F)n2)cc1` [Compound 47, N-(cyclopropylmethyl)-4-((5-(trifluoromethyl)-1,2,4-oxadiazol-3-yl)methyl)benzamide], the pest or weed control at 500 ppm is greater than 70%. On to `COCCNC(=O)c1ccc(Cc2noc(C(F)(F)F)n2)cc1` [Compound 42, N-(2-methoxyethyl)-4-((5-(trifluoromethyl)-1,2,4-oxadiazol-3-yl)methyl)benzamide], for which the pest or weed control at 500 ppm is greater than 70%.

For the compound `COCCN(C)C(=O)c1ccc(Cc2noc(C(F)(F)F)n2)cc1` [Compound 46, N-(2-methoxyethyl)-N-methyl-4-((5-(trifluoromethyl)-1,2,4-oxadiazol-3-yl)methyl)benzamide], the pest or weed control at 500 ppm is greater than 70%. `O=C(NCc1ccc(F)cc1)c1ccc(Cc2noc(C(F)(F)F)n2)cc1` [Compound 12, N-(4-fluorobenzyl)-4-((5-(trifluoromethyl)-1,2,4-oxadiazol-3-yl)methyl)benzamide]: the pest or weed control at 500 ppm is greater than 70%. Same read-out and setting: the figure for `C=CCN(C)C(=O)c1ccc(Cc2noc(C(F)(F)F)n2)cc1` [Compound 49, N-allyl-N-methyl-4-((5-(trifluoromethyl)-1,2,4-oxadiazol-3-yl)methyl)benzamide] is greater than 70%; for `C#CCNC(=O)c1ccc(Cc2noc(C(F)(F)F)n2)cc1` [Compound 50, N-(prop-2-yn-1-yl)-4-((5-(trifluoromethyl)-1,2,4-oxadiazol-3-yl)methyl)benzamide] it is greater than 70%; for `O=C(Nc1ccc(Cc2noc(C(F)(F)F)n2)cc1)c1ccccn1` [Compound 3, N-(4-((5-(trifluoromethyl)-1,2,4-oxadiazol-3-yl)methyl)phenyl)picolinamide] it is greater than 70%. The same measure, in the same setting: next, `CC(C)(C)OC(=O)Nc1ccc(C(=O)c2noc(C(F)(F)F)n2)cc1` [Compound 29, tert-butyl (4-(5-(trifluoromethyl)-1,2,4-oxadiazole-3-carbonyl)phenyl)carbamate]: greater than 70%; `CNC(=O)c1ccc(Cc2noc(C(F)(F)F)n2)cc1` [Compound 40, N-methyl-4-((5-(trifluoromethyl)-1,2,4-oxadiazol-3-yl)methyl)benzamide]: greater than 70%.

With `O=C(Nc1ccc(Cc2noc(C(F)(F)F)n2)cc1)c1ccc(C(F)(F)F)cc1` [Compound 8, 4-(trifluoromethyl)-N-(4-((5-(trifluoromethyl)-1,2,4-oxadiazol-3-yl)methyl)phenyl)benzamide], the pest or weed control at 500 ppm was greater than 70%.

Take `Fc1ccc(NC(=S)c2ccc(Cc3noc(C(F)(F)F)n3)cc2)cc1` [Compound 67, N-(4-fluorophenyl)-4-((5-(trifluoromethyl)-1,2,4-oxadiazol-3-yl)methyl)benzothioamide]: the pest or weed control at 500 ppm is greater than 70%.

(Values after patent publication US20210387954A1, “OXADIAZOLES AS FUNGICIDES” (PI INDUSTRIES LIMITED, priority 2018, published 2021).)
